Source: patent publication US9688695B2, “Imidazothiadiazole and imidazopyrazine derivatives as protease activated receptor 4 (PAR4) inhibitors for treating platelet aggregation” (BRISTOL-MYERS SQUIBB COMPANY, priority 2012, dated 2017)

Assays:
PAR4 [1] = molecular target: T1, PAR4 (Homo sapiens (Human), UniProt Q96RI0); test: FLIPR assay in PAR4-expressing HEK293 cells (PAR4 antagonist activity, calcium mobilization); assay type: cell-based; conditions: H-Ala-Phe(4-F)-Pro-Gly-Trp-Leu-Val-Lys-Asn-Gly-NH2-induced calcium mobilization
T1 sequence (Q96RI0 18-385): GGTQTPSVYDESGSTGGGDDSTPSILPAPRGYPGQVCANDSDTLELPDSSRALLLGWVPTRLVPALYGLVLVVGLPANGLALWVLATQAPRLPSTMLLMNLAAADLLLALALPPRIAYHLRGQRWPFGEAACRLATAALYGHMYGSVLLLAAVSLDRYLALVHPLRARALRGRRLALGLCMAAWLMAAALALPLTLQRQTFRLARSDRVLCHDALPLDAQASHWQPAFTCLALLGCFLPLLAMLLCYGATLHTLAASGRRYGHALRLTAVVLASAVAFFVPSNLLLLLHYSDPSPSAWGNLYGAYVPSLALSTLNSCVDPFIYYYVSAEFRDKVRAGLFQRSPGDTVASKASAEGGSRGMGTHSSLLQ
Procedure, shortened: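 HEK293 EBNA cells stably expressing human PAR4 (also endogenous PAR1) preincubated 30 min at room temperature with compound in HBSS/10 mM HEPES, 0.67% DMSO final. PAR4 agonist peptide then added and intracellular calcium mobilization monitored by fluorescence.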

PAR4 [2] = molecular target: T1, PAR4; test: Gamma thrombin induced platelet aggregation assay (PRP assay); assay type: cell-based; conditions: human platelet rich plasma, 96-well microplate
Protocol: Platelet aggregation can be monitored in a 96-well microplate aggregation assay format or using standard platelet aggregometer.
The platelet rich plasma was isolated by centrifugation at 170 g for 14 minutes.
The ability of the compounds of the current invention to inhibit platelet aggregation induced by gamma-thrombin was tested in a 96-well microplate aggregation assay format. Briefly, PRP or washed platelet suspension (100 μl) was pre-incubated for 5 minutes at room temperature with varying concentrations of compounds. Aggregation was initiated by ˜10-50 nM gamma thrombin (Haematologic Technologies, Essex Junction, Vt.), which was titrated daily to achieve 80% platelet aggregation. Refludan at 1 U/mL (Berlex, Montville, N.J.) was added to the gamma thrombin sample to prevent PAR1 activation induced by residual alpha-thrombin contamination. The plate was then placed into a 37° C. Molecular Devices (Sunnyvale, Calif.) SPECTRAMAX® Plus Plate Reader. […] The plate also included an untreated control sample which served as ODmax, while buffer containing no platelets was the ODmin. Platelet aggregation was determined by subtracting the ODmax from the ODmin for the 100% aggregation value. In experimental samples, the observed transmission was subtracted from the minimum value and then compared to the 100% aggregation value to determine the percentage aggregation. IC50 values are determined using Excel Fit software.

| SMILES | EC50 (PAR4 [1]) [nM] | IC50 (PAR4 [2]) [nM] |
| --- | --- | --- |
| COc1cc(OCc2nc(-c3ccc(C(=O)N(C)CC#N)cc3)sc2C)c2cc(-c3cn4nc(OC)sc4n3)oc2c1 [Example 48, N-(Cyanomethyl)-4-(4-(((6-methoxy-2-(2-methoxyimidazo[2,1-b][1,3,4]thiadiazol-6-yl)benzofuran-4-yl)oxy)methyl)-5-methylthiazol-2-yl)-N-methylbenzamide] | 0.51 | 1.2 |
| COc1cc(OCc2csc(-c3ccnc(F)c3)n2)c2cc(-c3cn4nc(OC)sc4n3)oc2c1 [Example 67] | 0.34 | 2.2 |
| COc1cc(OCc2csc(-c3ccc(F)nc3)n2)c2cc(-c3cn4nc(OC)sc4n3)oc2c1 [Example 73] | 0.35 | 1.9 |
| COc1cc(OCc2csc(-c3ccc(C)nc3)n2)c2cc(-c3cn4nc(OC)sc4n3)oc2c1 [Example 74] | 0.56 | 0.96 |
| COc1cc(OCc2nc(-c3cccc(CO)c3)sc2C)c2cc(-c3cn4nc(OC)sc4n3)oc2c1 [Example 77] | 1 | 1.9 |
| COc1cc(OCc2csc(-c3ccc(Cl)nc3)n2)c2cc(-c3cn4nc(OC)sc4n3)oc2c1 [Example 80] | 0.74 | 0.94 |
| COc1cc(OCc2nc(N)sc2C)c2cc(-c3cn4nc(OC)sc4n3)oc2c1 [Example 87, 4-(((6-Methoxy-2-(2-methoxyimidazo[2,1-b][1,3,4]thiadiazol-6-yl)benzofuran-4-yl)oxy)methyl)-5-methylthiazol-2-amine] | 24 | > 3000 |
| COc1cc(OCc2nc(N3CC4CCC(C3)O4)sc2C)c2cc(-c3cn4nc(OC)sc4n3)oc2c1 [Example 93, 3-(4-(((6-Methoxy-2-(2-methoxyimidazo[2,1-b]thiadiazol-6-yl)benzofuran-4-yl)oxy)methyl)-5-methylthiazol-2-yl)-8-oxa-3-azabicyclo-[3.2.1]-octane] | 0.45 | 27 |
| COc1cc(OCc2csc(N3CCC4(CC3)OCCO4)n2)c2cc(-c3cn4nc(OC)sc4n3)oc2c1 [Example 103, 8-(4-(((6-Methoxy-2-(2-methoxyimidazo[2,1-b][1,3,4]thiadiazol-6-yl)benzofuran-4-yl)oxy)methyl)thiazol-2-yl)-1,4-dioxa-8-azaspiro[4.5]decane] | 0.31 | 24 |
| COc1cc(OCc2csc(C3(O)CCOCC3)n2)c2cc(-c3cn4nc(OC)sc4n3)oc2c1 [Example 118, 4-(4-(((6-Methoxy-2-(2-methoxyimidazo[2,1-b][1,3,4]thiadiazol-6-yl)benzofuran-4-yl)oxy)methyl)thiazol-2-yl)tetrahydro-2H-pyran-4-ol] | 0.33 | 25 |
| COc1cc(OCc2csc(C3(O)CC(C)OC(C)C3)n2)c2cc(-c3cn4nc(OC)sc4n3)oc2c1 (stereo not shown) [Example 121, 4-(4-(((6-Methoxy-2-(2-methoxyimidazo[2,1-b][1,3,4]thiadiazol-6-yl)benzofuran-4-yl)oxy)methyl)thiazol-2-yl)-2,6-dimethyltetrahydro-2H-pyran-4-ol] | 0.27 | 27 |
| COc1cc(OCc2csc(C3(O)CCC4(CC3)OCCO4)n2)c2cc(-c3cn4nc(OC)sc4n3)oc2c1 [Example 126, 8-(4-(((6-Methoxy-2-(2-methoxyimidazo[2,1-b][1,3,4]thiadiazol-6-yl)benzofuran-4-yl)oxy)methyl)-thiazol-2-yl)-1,4-dioxaspiro[4.5]decan-8-ol] | 0.33 | 1.9 |
| COc1cc(OCc2nc(C3(O)CCOCC3)sc2C(F)(F)F)c2cc(-c3cn4nc(OC)sc4n3)oc2c1 [Example 131, 4-(4-(((6-Methoxy-2-(2-methoxyimidazo[2,1-b][1,3,4]thiadiazol-6-yl)benzofuran-4-yl)oxy)methyl)-5-(trifluoromethyl)thiazol-2-yl)tetrahydro-2H-pyran-4-ol] | 0.66 | > 3000 |
| COc1cc(OCc2csc(C(O)(c3ccccc3)C(F)(F)F)n2)c2cc(-c3cn4nc(OC)sc4n3)oc2c1 (stereo not shown) [Example 137] | 1.2 | 23 |
